Measured values published in patent US10844077B2, “Thiazolyl-containing compounds for treating proliferative diseases” (Dana-Farber Cancer Institute, Inc., priority 2014, dated 2020).
Where “and” joins values, the source holds several entries; their conditions need not be identical. Identical values can stand only once.

Experiments:
[1] = biological target: MLKL (Homo sapiens (Human), UniProt Q8NB16); assay: KINATIV assay; assay type: cell-based; details: 1 μM, 90 minutes, BCWM.1 cells
Method: (§1) The cells were harvested and lysed. The lysates were directly labeled with an ATP-biotin probe. Bound kinases were identified and quantitated by ACTIVX as described in Patricelli et al., Biochemistry, 2007, 46(2): 350-358. The compounds were tested in duplicates against duplicate or quadruplicate control samples.

[2] = biological target: MSK1 domain1 (Homo sapiens (Human), UniProt O75582); assay: KINATIV assay; assay type: cell-based; details: 1 μM, 90 minutes, BCWM.1 cells
Method: as §1

[3] = biological target: eEF2K (Homo sapiens (Human), UniProt O00418); assay: KINATIV assay; assay type: cell-based; details: 1 μM, 90 minutes, BCWM.1 cells
Method: as §1

[4] = system: MARK1, MARK2; assay: KINATIV assay; assay type: cell-based; details: 1 μM, 90 minutes, BCWM.1 cells
Method: as §1

[5] = system: KSR1, KSR2; assay: KINATIV assay; assay type: cell-based; details: 1 μM, 90 minutes, BCWM.1 cells
Method: as §1

[6] = biological target: LCK (Homo sapiens (Human), UniProt P06239); assay: KINATIV assay; assay type: cell-based; details: 1 μM, 90 minutes, BCWM.1 cells
Method: as §1

[7] = biological target: CK1g2 (Homo sapiens (Human), UniProt P78368); assay: KINATIV assay; assay type: cell-based; details: 1 μM, 90 minutes, BCWM.1 cells
Method: as §1

[8] = biological target: CaMK4 (Homo sapiens (Human), UniProt Q16566); assay: KINATIV assay; assay type: cell-based; details: 1 μM, 90 minutes, BCWM.1 cells
Method: as §1

[9] = biological target: AurB (Homo sapiens (Human), UniProt Q96GD4); assay: KINATIV assay; assay type: cell-based; details: 1 μM, 90 minutes, BCWM.1 cells
Method: as §1

[10] = system: Wnk1, Wnk2; assay: KINATIV assay; assay type: cell-based; details: 1 μM, 90 minutes, BCWM.1 cells
Method: as §1

[11] = system: MYO3A, MYO3B; assay: KINATIV assay; assay type: cell-based; details: 1 μM, 90 minutes, BCWM.1 cells
Method: as §1

[12] = biological target: CaMK2g (Homo sapiens (Human), UniProt Q13555); assay: KINATIV assay; assay type: cell-based; details: 1 μM, 90 minutes, BCWM.1 cells
Method: as §1

[13] = biological target: LKB1 (Homo sapiens (Human), UniProt Q15831); assay: KINATIV assay; assay type: cell-based; details: 1 μM, 90 minutes, BCWM.1 cells
Method: as §1

[14] = biological target: ITPK1 (Homo sapiens (Human), UniProt Q13572); assay: KINATIV assay; assay type: cell-based; details: 1 μM, 90 minutes, BCWM.1 cells
Method: as §1

[15] = biological target: TAO2 (Homo sapiens (Human), UniProt Q9UL54); assay: KINATIV assay; assay type: cell-based; details: 1 μM, 90 minutes, BCWM.1 cells
Method: as §1

[16] = biological target: NEK1 (Homo sapiens (Human), UniProt Q96PY6); assay: KINATIV assay; assay type: cell-based; details: 1 μM, 90 minutes, BCWM.1 cells
Method: as §1

[17] = biological target: Erk1 (Homo sapiens (Human), UniProt P27361); assay: KINATIV assay; assay type: cell-based; details: 1 μM, 90 minutes, BCWM.1 cells
Method: as §1

[18] = biological target: TEC (Homo sapiens (Human), UniProt P42680); assay: KINATIV assay; assay type: cell-based; details: 1 μM, 90 minutes, BCWM.1 cells
Method: as §1

[19] = system: Wnk1, Wnk2, Wnk4; assay: KINATIV assay; assay type: cell-based; details: 1 μM, 90 minutes, BCWM.1 cells
Method: as §1

[20] = biological target: TYK2 domain2 (Homo sapiens (Human), UniProt P29597); assay: KINATIV assay; assay type: cell-based; details: 1 μM, 90 minutes, BCWM.1 cells
Method: as §1

[21] = system: TAO1, TAO3; assay: KINATIV assay; assay type: cell-based; details: 1 μM, 90 minutes, BCWM.1 cells
Method: as §1

[22] = biological target: CDK6 (Homo sapiens (Human), UniProt Q00534); assay: KINATIV assay; assay type: cell-based; details: 1 μM, 90 minutes, BCWM.1 cells
Method: as §1

[23] = biological target: TLK1 (Homo sapiens (Human), UniProt Q9UKI8); assay: KINATIV assay; assay type: cell-based; details: 1 μM, 90 minutes, BCWM.1 cells
Method: as §1

[24] = biological target: MSK2 domain1 (Homo sapiens (Human), UniProt O75676); assay: KINATIV assay; assay type: cell-based; details: 1 μM, 90 minutes, BCWM.1 cells
Method: as §1

[25] = system: CaMK2a, CaMK2b, CaMK2d, CaMK2g; assay: KINATIV assay; assay type: cell-based; details: 1 μM, 90 minutes, BCWM.1 cells
Method: as §1

[26] = biological target: PIP4K2C (Homo sapiens (Human), UniProt Q8TBX8); assay: KINATIV assay; assay type: cell-based; details: 1 μM, 90 minutes, BCWM.1 cells
Method: as §1

[27] = biological target: CK2a1 (Homo sapiens (Human), UniProt P68400); assay: KINATIV assay; assay type: cell-based; details: 1 μM, 90 minutes, BCWM.1 cells
Method: as §1

[28] = biological target: ULK1 (Homo sapiens (Human), UniProt O75385); assay: KINATIV assay; assay type: cell-based; details: 1 μM, 90 minutes, BCWM.1 cells
Method: as §1

[29] = biological target: LATS2 (Homo sapiens (Human), UniProt Q9NRM7); assay: KINATIV assay; assay type: cell-based; details: 1 μM, 90 minutes, BCWM.1 cells
Method: as §1

[30] = system: PITSLRE; assay: KINATIV assay; assay type: cell-based; details: 1 μM, 90 minutes, BCWM.1 cells
Method: as §1

[31] = biological target: PHKg2 (Homo sapiens (Human), UniProt P15735); assay: KINATIV assay; assay type: cell-based; details: 1 μM, 90 minutes, BCWM.1 cells
Method: as §1

[32] = biological target: GCN2 (Homo sapiens (Human), UniProt Q9P2K8); assay: KINATIV assay; assay type: cell-based; details: 1 μM, 90 minutes, BCWM.1 cells
Method: as §1

[33] = biological target: SRPK1 (Homo sapiens (Human), UniProt Q96SB4); assay: KINATIV assay; assay type: cell-based; details: 1 μM, 90 minutes, BCWM.1 cells
Method: as §1

[34] = biological target: TBK1 (Homo sapiens (Human), UniProt Q9UHD2); assay: KINATIV assay; assay type: cell-based; details: 1 μM, 90 minutes, BCWM.1 cells
Method: as §1

[35] = biological target: PRPK (Homo sapiens (Human), UniProt Q96S44)
Method: as §1

[36] = biological target: PCTAIRE1 (Homo sapiens (Human), UniProt Q00536)
Method: as §1

[37] = biological target: PRP4 (Homo sapiens (Human), UniProt Q13523)
Method: as §1

[38] = biological target: MAPKAPK3 (Homo sapiens (Human), UniProt Q16644)
Method: as §1

[39] = biological target: PCTAIRE2 (Homo sapiens (Human), UniProt Q00537)
Method: as §1

[40] = system: PCTAIRE2, PCTAIRE3; assay: KINATIV assay; assay type: cell-based; details: 1 μM, 90 minutes, BCWM.1 cells
Excerpt: (§2) The cells were harvested and lysed.

[41] = system: PCTAIRE1, PCTAIRE3; assay: KINATIV assay; assay type: cell-based; details: 1 μM, 90 minutes, BCWM.1 cells
Excerpt: as §2

Chain of TLK1 (Q9UKI8 whole entry): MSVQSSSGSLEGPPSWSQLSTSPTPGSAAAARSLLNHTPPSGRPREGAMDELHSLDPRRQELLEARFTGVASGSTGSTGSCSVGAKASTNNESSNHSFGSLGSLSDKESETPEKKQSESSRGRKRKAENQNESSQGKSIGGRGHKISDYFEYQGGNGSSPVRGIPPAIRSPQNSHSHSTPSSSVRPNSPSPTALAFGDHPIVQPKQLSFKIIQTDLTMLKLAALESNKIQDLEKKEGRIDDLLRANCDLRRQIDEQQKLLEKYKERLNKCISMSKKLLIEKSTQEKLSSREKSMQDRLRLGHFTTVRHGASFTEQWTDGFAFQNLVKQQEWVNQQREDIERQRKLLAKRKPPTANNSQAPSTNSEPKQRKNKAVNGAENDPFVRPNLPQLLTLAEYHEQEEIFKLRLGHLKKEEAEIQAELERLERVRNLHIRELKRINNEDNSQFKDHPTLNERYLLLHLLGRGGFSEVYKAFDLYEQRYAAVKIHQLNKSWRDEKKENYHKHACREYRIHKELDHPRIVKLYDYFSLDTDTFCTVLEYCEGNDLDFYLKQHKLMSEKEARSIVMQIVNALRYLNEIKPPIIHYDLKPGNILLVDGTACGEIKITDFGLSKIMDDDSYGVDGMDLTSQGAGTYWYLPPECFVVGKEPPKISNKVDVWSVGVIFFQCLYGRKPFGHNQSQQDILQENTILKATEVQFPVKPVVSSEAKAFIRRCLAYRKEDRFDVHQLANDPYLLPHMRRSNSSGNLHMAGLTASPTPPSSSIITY
Chain of PIP4K2C (Q8TBX8 whole entry): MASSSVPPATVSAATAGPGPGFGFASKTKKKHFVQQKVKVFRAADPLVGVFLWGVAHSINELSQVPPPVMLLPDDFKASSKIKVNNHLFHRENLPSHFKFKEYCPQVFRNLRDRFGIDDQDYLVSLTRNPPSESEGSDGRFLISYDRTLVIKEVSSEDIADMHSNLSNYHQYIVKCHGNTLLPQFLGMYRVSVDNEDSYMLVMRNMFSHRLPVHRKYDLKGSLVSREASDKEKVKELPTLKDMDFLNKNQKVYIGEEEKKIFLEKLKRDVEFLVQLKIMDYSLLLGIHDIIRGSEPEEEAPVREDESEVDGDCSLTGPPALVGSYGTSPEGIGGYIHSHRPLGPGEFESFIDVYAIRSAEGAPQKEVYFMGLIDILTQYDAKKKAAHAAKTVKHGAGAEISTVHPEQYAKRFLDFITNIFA
Chain of GCN2 (Q9P2K8 whole entry): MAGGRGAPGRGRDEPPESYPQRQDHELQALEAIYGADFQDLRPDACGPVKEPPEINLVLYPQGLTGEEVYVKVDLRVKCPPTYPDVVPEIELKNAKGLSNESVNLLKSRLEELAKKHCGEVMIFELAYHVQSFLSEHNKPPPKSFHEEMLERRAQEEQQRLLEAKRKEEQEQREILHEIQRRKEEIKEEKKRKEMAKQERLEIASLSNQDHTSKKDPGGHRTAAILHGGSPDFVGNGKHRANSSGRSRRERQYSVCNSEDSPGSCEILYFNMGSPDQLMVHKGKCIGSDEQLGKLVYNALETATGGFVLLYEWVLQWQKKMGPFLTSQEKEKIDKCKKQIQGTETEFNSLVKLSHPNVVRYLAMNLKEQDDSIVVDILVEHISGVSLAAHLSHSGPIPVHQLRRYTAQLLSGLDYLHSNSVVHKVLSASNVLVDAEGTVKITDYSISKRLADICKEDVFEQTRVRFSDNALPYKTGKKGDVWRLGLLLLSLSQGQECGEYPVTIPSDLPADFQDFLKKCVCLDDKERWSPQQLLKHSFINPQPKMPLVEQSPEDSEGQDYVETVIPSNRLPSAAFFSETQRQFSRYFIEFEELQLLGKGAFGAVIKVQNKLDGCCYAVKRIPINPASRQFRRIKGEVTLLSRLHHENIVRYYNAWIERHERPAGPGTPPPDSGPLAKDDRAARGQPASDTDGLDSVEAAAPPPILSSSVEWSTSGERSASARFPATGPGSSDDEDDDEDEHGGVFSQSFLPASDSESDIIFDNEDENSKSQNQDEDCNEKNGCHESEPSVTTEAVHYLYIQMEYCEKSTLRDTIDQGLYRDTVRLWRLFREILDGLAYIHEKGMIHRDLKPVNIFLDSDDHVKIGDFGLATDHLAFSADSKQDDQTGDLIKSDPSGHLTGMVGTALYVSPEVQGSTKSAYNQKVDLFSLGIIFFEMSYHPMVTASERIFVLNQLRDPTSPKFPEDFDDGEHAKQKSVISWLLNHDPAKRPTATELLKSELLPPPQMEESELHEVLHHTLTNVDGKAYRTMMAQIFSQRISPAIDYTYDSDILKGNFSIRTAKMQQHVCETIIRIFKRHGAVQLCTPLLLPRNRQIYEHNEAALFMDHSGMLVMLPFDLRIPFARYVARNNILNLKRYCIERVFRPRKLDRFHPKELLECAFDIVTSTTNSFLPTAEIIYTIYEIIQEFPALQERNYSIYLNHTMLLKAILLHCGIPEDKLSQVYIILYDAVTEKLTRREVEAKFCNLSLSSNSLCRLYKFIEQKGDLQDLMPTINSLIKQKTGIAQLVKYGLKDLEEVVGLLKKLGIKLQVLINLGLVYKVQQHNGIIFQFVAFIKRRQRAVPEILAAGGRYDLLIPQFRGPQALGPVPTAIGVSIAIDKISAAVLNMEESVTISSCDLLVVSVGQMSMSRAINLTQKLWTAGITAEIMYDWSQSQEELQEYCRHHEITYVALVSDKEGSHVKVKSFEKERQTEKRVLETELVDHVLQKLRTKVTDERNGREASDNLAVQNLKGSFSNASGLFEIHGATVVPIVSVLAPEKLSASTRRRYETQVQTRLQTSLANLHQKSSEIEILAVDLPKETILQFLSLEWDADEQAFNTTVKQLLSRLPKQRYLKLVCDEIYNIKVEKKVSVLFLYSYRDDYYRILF
Chain of TEC (P42680 whole entry): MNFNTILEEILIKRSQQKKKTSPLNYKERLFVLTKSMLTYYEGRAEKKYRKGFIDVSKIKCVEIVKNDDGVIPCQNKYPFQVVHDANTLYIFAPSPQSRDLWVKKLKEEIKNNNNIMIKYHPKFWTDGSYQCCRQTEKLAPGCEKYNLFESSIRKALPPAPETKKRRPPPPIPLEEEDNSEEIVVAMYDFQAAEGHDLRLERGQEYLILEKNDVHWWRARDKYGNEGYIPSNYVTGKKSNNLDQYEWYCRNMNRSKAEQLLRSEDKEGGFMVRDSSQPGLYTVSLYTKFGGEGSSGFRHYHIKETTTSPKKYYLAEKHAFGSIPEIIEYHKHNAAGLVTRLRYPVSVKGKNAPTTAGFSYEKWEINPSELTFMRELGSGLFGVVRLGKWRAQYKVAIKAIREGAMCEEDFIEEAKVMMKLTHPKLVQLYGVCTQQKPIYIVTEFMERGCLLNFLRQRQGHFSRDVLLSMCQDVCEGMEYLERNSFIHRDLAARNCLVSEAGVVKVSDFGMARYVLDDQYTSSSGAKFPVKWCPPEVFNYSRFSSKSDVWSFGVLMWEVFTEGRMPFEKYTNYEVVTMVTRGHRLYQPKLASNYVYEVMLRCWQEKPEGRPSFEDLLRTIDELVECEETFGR
Chain of SRPK1 (Q96SB4 whole entry): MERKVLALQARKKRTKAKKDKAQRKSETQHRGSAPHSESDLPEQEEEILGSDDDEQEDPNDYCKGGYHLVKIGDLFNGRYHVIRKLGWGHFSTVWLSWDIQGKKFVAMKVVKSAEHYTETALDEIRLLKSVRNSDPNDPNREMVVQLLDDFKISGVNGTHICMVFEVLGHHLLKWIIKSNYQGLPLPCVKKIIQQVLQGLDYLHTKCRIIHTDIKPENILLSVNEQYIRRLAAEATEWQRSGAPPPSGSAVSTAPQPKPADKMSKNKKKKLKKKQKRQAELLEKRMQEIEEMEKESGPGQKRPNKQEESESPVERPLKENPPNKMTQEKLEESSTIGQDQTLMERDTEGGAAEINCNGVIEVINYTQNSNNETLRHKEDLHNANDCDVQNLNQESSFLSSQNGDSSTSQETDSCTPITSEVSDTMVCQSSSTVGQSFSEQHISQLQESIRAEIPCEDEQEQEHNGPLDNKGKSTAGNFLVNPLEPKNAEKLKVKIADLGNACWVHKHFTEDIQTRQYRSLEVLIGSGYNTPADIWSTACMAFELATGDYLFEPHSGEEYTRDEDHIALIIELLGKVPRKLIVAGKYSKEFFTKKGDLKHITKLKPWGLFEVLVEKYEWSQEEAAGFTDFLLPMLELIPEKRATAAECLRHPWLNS
Chain of ITPK1 (Q13572 whole entry): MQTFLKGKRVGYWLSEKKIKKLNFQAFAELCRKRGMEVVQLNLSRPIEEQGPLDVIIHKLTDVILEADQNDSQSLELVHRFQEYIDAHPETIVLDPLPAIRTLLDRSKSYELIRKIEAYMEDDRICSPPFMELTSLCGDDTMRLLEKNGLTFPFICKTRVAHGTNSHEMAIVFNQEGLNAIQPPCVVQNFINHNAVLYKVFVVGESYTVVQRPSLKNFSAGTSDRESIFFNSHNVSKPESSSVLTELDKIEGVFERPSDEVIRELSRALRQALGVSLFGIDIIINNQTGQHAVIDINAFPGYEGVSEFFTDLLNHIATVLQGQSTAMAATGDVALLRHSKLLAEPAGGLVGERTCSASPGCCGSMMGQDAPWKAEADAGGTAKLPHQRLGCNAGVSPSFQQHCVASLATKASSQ
Chain of CaMK4 (Q16566 whole entry): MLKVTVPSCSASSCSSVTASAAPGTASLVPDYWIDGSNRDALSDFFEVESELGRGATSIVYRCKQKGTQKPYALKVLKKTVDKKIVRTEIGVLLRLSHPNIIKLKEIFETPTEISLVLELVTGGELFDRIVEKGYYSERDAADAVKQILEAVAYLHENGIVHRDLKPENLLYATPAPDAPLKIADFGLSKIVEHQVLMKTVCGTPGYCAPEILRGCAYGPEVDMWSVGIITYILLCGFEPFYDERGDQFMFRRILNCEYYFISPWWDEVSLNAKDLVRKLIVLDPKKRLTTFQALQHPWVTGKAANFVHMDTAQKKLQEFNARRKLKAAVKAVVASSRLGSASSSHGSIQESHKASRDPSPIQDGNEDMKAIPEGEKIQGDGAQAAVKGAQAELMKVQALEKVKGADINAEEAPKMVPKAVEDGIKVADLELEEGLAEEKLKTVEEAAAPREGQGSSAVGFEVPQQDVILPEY

## C=CC(=O)N1CC[C@@H](Nc2nccc(Nc3ncc(C(=O)Nc4c(C)cccc4C)s3)n2)C1 [Example I-4]
[1]
  % change of MS signal compared to control sample: −9.4%
[2]
  % change of MS signal compared to control sample: −15.8%
[3]
  % change of MS signal compared to control sample: 0.3%
[4]
  % change of MS signal compared to control sample: 17.1%
[5]
  % change of MS signal compared to control sample: −8.9%
[6]
  % change of MS signal compared to control sample: 96.1%
[7]
  % change of MS signal compared to control sample: −4.5%
[8]
  % change of MS signal compared to control sample: −7.1%
[9]
  % change of MS signal compared to control sample: −10.1%
[10]
  % change of MS signal compared to control sample: 7.8%
[11]
  % change of MS signal compared to control sample: 15.9%
[12]
  % change of MS signal compared to control sample: −19.8%
[13]
  % change of MS signal compared to control sample: −4.5%
[14]
  % change of MS signal compared to control sample: 12.8%
[15]
  % change of MS signal compared to control sample: −7.0%
[16]
  % change of MS signal compared to control sample: 7.3%
[17]
  % change of MS signal compared to control sample: −10.9%
[18]
  % change of MS signal compared to control sample: 68.7% and 73.7%
[19]
  % change of MS signal compared to control sample: −0.5%
[20]
  % change of MS signal compared to control sample: −3.8%
[21]
  % change of MS signal compared to control sample: 7.6%
[22]
  % change of MS signal compared to control sample: 7.8%
[23]
  % change of MS signal compared to control sample: 2.2% and 8.2%
[24]
  % change of MS signal compared to control sample: −9.6%
[25]
  % change of MS signal compared to control sample: 10.0%
[26]
  % change of MS signal compared to control sample: 71.0% and 43.0%
[27]
  % change of MS signal compared to control sample: 24.6%
[28]
  % change of MS signal compared to control sample: 16.2%
[29]
  % change of MS signal compared to control sample: −9.2%
[30]
  % change of MS signal compared to control sample: −13.6%
[31]
  % change of MS signal compared to control sample: −15.6%
[32]
  % change of MS signal compared to control sample: −11.0% and −5.7%
[33]
  % change of MS signal compared to control sample: −2.1%
[34]
  % change of MS signal compared to control sample: −34.8%
[35]
  % change of MS signal compared to control sample: −13.6%
[36]
  % change of MS signal compared to control sample: 19.0%
[37]
  % change of MS signal compared to control sample: 6.9%
[38]
  % change of MS signal compared to control sample: 7.0%
[39]
  % change of MS signal compared to control sample: 13.4%
[40]
  % change of MS signal compared to control sample: 27.9%
[41]
  % change of MS signal compared to control sample: 12.7%
